Test results from paper PMC11256326, “Discovery of Heparin Mimetic, Potent, and Selective Inhibitors of Human Clotting Factor XIIIa” (ACS Omega, 2024).

What was measured:
[1] = molecular target: T1, thrombin (Homo sapiens, UniProt P00734); experiment: chromogenic substrate hydrolysis assay, thrombin; type: biochemical; settings: for IC50: Tris-HCl pH 7.4, 37 °C, > values from highest concentration used; for thrombin HS (Hill slope) / thrombin ΔY (efficacy): pH 7.4, 37 °C
T1 construct: Human plasma proteins such as FXIIIa, thrombin, factor Xa, and factor XIa; purchased Haematologic Technologies; host or cells: human plasma
From the text: (§1) One of the motivations for targeting anion-binding sites on human FXIIIa was to achieve selectivity in inhibition over closely related enzymes such as other clotting serine proteases or other transglutaminases and cysteine proteases.
(§2) Human plasma proteins such as FXIIIa, thrombin, factor Xa, and factor XIa were procured from Haematologic Technologies. Recombinant human TG-2 was sourced from Tocris Bioscience. Their activities were validated according to the supplier’s instructions. Chromogenic substrates for thrombin and factor Xa were acquired from Biomedica Diagnostics, while the factor XIa chromogenic substrate (S-2366) was obtained from Diapharma. Dithiothreitol, N,N-dimethylcasein, and dansylcadaverine were purchased from Sigma Aldrich. Stock solutions of thrombin and factor XIa were prepared in 50 mM Tris-HCl buffer, pH 7.4, containing 150 mM sodium chloride, 0.1% PEG8000, and 0.02% Tween80. The stock solution of factor Xa was prepared in 20 mM Tris-HCl buffer, pH 7.4, containing 100 mM sodium chloride, 0.1% PEG8000, 2.5 mM CaCl2, and 0.02% Tween80. The stock solutions of FXIIIa and rTG-2 were prepared in 50 mM Tris-HCl, 1 mM CaCl2, 100 mM sodium chloride, 0.02% Tween80, 0.1% PEG8000, and 2 mg/mL dimethylcasein. Papain and its chromogenic substrate (N-α-benzoyl-L-arginyl-4-nitroanilide) were obtained from Sigma Aldrich. Papain was prepared in 50 mM Tris-HCl buffer, pH 7.4, containing 100 mM NaCl, 100 mM DTT, 2.5 mM CaCl2, 0.1% PEG8000, and 0.02% Tween80. Human plasma for coagulation assays was obtained from George King Bio-Medica for the clotting assays. Thromboplastin-D (PT reagent), APTT reagent containing ellagic acid, and 0.025 M solution of CaCl2 were obtained from Thermo Fisher Scientific. Results were reproduced at least three times.
(§3) The inhibitory potential of various heparin mimetics against other clotting factors, including thrombin, factor Xa, and factor XIa, was also examined using established chromogenic substrate hydrolysis assays.[47],[50] For instance, in each well of a 96-well microplate containing either 85 or 185 μL of 20–50 mM Tris-HCl buffer (pH 7.4), supplemented with 100–150 mM NaCl, 0.1% PEG8000, and 0.02% Tween80 at either 25 or 37 °C, 5 μL of the inhibitor (or high purity water) and 5 μL of the enzyme were added. The final concentrations of the enzymes were 6 nM (thrombin), 1.09 nM (factor Xa), and 0.8 nM (factor XIa). After a 5 min incubation period, 5 μL of Spectrozyme TH (final concentration: 0.050 mM), Spectrozyme FXa (0.125 mM), or factor XIa substrate (0.35 mM) was swiftly added, and the residual enzyme activity was gauged from the initial rate of increase in absorbance at λ405 nm. The relative residual enzyme activity was calculated as a function of the inhibitor concentration. If 50% or more of the enzyme was inhibited, the results were then plotted using eq 1 to determine the corresponding IC50 values.

[2] = molecular target: T2, factor XIa (Homo sapiens, UniProt P03951); experiment: chromogenic substrate hydrolysis assay, factor XIa; type: biochemical; settings: for IC50: Tris-HCl pH 7.4, 37 °C, > values from highest concentration used, read-out: FXIa IC50; for FXIa HS (Hill slope) / FXIa ΔY (efficacy): pH 7.4, 37 °C
T2 construct: Human plasma proteins such as FXIIIa, thrombin, factor Xa, and factor XIa; purchased Haematologic Technologies; host or cells: human plasma
T2 sequence (P03951 388-625 limits assumed): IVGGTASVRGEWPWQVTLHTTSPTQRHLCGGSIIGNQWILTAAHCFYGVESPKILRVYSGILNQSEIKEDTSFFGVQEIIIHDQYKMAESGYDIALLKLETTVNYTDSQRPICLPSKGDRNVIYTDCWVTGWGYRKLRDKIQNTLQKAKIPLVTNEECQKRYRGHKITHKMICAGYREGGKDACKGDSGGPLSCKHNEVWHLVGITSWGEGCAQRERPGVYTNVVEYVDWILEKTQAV
T2 sequence (P03951 19-387 limits assumed): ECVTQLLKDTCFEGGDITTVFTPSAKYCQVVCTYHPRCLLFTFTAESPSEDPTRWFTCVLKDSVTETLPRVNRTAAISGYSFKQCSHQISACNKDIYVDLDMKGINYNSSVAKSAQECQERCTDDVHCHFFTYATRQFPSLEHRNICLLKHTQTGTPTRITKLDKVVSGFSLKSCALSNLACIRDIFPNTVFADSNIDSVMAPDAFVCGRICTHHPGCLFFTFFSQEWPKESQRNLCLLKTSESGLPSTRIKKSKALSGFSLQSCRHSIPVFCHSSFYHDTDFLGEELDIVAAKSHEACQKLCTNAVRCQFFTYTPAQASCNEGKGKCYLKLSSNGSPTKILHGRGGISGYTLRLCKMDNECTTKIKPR
From the text: as §1, §2, §3

[3] = system: normal human plasma; experiment: activated partial thromboplastin time (APTT) of normal human plasma; type: biochemical; settings: for APTT2X (concentration required to double APTT): normal human plasma, in vitro
Description: (§4) To further evaluate the selectivity as well as the potential toxicity of inhibitors, we studied their effects on the clotting times of normal human plasma as well as their effects on the proliferation of three cell lines. On the one hand, the inhibitors’ effects on activated partial thromboplastin time (APTT) and prothrombin time (PT) were measured, as described earlier under in vitro conditions,[52]−[55] using variable concentrations (0–2000 μM) (Table 3). […] On the other hand, the antiproliferative properties of inhibitors 13 and 16 were evaluated in three cell lines of breast (MCF-7), intestine (CaCo-2), and kidney (HEK-293) (Figure 5B), as described earlier.[56] […] Overall, inhibitor 16 can be considered for further development as a potent, selective, and nontoxic inhibitor of human FXIIIa.
(§5) Clotting times, including activated partial thromboplastin time (APTT) and prothrombin time (PT), were assessed in normal human plasma utilizing the BBL Fibrosystem fibrometer from Becton–Dickinson, as detailed in previous publications.[51]−[54] For the PT assay, thromboplastin-D was dissolved in 4 mL of highly purified water and then warmed to 37 °C. Subsequently, 10 μL of the inhibitor was added to 90 μL of normal human plasma and incubated for 30 s. Following this, 200 μL of prewarmed PT reagent was added, and the clotting time was recorded. In the APTT assay, 10 μL of the inhibitor was combined with 90 μL of normal human plasma and 100 μL of prewarmed APTT reagent (0.2% ellagic acid). After incubation for 4 min at 37 °C, clotting was initiated by adding 100 μL of prewarmed 0.025 M CaCl2, and the clotting time was documented. Multiple concentrations of each molecule were employed in both assays to establish a concentration vs effect curve.

[4] = molecular target: T3, factor Xa (Homo sapiens, UniProt P00742); experiment: chromogenic substrate hydrolysis assay, factor Xa; type: biochemical; settings: for IC50: Tris-HCl pH 7.4, 37 °C, > values from highest concentration used, read-out: FXa IC50; for FXa HS (Hill slope) / FXa ΔY (efficacy): pH 7.4, 37 °C
T3 construct: Human plasma proteins such as FXIIIa, thrombin, factor Xa, and factor XIa; purchased Haematologic Technologies; host or cells: human plasma
T3 sequence (P00742 235-488 limits assumed): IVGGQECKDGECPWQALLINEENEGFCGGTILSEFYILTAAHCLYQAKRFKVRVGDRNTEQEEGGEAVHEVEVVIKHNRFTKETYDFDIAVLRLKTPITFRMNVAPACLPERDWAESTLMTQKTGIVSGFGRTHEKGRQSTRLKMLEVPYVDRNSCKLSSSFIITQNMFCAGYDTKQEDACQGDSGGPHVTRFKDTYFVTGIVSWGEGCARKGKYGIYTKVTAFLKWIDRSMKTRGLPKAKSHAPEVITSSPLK
T3 sequence (P00742 41-179 limits assumed): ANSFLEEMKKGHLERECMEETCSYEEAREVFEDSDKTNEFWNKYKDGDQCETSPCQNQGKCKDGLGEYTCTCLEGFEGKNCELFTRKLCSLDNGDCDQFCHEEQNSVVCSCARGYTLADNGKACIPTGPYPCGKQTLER
From the text: as §1, §2, §3

[5] = system: CaCo-2 heterogeneous human epithelial colorectal adenocarcinoma cells; experiment: cell viability, Alamar Blue, CaCo-2; type: cell-based; settings: CaCo-2, 10 μM, 3 days
Description: as §4
(§6) HEK-293 human embryonic kidney cells,[66] CaCo-2 heterogeneous human epithelial colorectal adenocarcinoma cells,[67] and MCF-7 human breast carcinoma cells[68] were treated as reported previously.[69],[70] […] Subsequently, fluorescence readings (λEx. = 560 nm and λEm. = 590 nm) were taken using the Synergy H1 multiplate reader (BioTek) to quantify cell numbers both in the absence (utilizing distilled water as a control) and the presence of inhibitors 13 and 16 (at a concentration of 10 μM; incubated for 3 days). […]

[6] = system: thrombin; experiment: chromogenic substrate hydrolysis assay, thrombin; type: biochemical, human
From the text: as §1, §2, §3

[7] = system: HEK-293 human embryonic kidney cells; experiment: cell viability, Alamar Blue, HEK-293; type: cell-based; settings: HEK-293, 10 μM, 3 days
Description: as §4, §6

[8] = system: normal human plasma; experiment: prothrombin time (PT) of normal human plasma; type: biochemical; settings: in vitro
Description: as §4, §5

| Structure (SMILES) | selectivity index for FXIIIa over factor XIa [2] [fold] | FXa HS (Hill slope) [4] | FXa ΔY (efficacy) [4] [%] | thrombin HS (Hill slope) [1] | thrombin ΔY (efficacy) [1] [%] | IC50 [1] [µM] | IC50 [2] [µM] | APTT2X (concentration required to double APTT) [3] [µM] | selectivity index for FXIIIa over factor Xa [4] | IC50 [4] [µM] | effect on proliferation / cell viability [5] | selectivity index for FXIIIa over thrombin [6] | effect on proliferation / cell viability [7] | FXIa HS (Hill slope) [2] | FXIa ΔY (efficacy) [2] [%] | PT2X (concentration required to double PT) [8] [µM] | concentration to double APTT as fold of the FXIIIa-IC50 [3] [fold] |
| --- | --- | --- | --- | --- | --- | --- | --- | --- | --- | --- | --- | --- | --- | --- | --- | --- | --- |
| Nc1c(S(=O)(=O)O)cc(Nc2ccc(Nc3nc(Cl)nc(Nc4ccccc4S(=O)(=O)O)n3)c(S(=O)(=O)O)c2)c2c1C(=O)c1ccccc1C2=O [compound 13] | > 48 | 1.5 ± 0.5 | 87 ± 4 | 1.9 ± 1.5 | 43 ± 11 | 86.9 ± 33.6 | > 150 | 1187.2 ± 175 | 20 fold | 63.5 ± 13 | does not significantly affect the proliferation | 28 fold | does not significantly affect the proliferation |  |  |  |  |
| COc1cc(-c2ccc(/N=N/c3ccc4c(S(=O)(=O)O)cc(S(=O)(=O)O)c(N)c4c3O)c(OC)c2)ccc1/N=N/c1ccc2c(S(=O)(=O)O)cc(S(=O)(=O)O)c(N)c2c1O [compound 19] |  |  |  |  |  | > 100 | 6.2 ± 0.4 | 1840.7 ± 88 | at least 7 fold | > 100 |  | at least 7 fold |  | 1.5 ± 0.1 | 106 ± 3 | 3073.2 ± 281 |  |
| Nc1c(/N=N/c2ccc(S(=O)(=O)CCOS(=O)(=O)O)cc2)c(S(=O)(=O)O)cc2cc(S(=O)(=O)O)c(/N=N/c3ccc(S(=O)(=O)CCOS(=O)(=O)O)cc3)c(O)c12 [compound 16] | > 65 |  |  |  |  | > 500 | > 150 | 704.6 ± 69 | > 208 fold | > 500 | does not significantly affect the proliferation | > 208 fold | does not significantly affect the proliferation |  |  |  | > 290 |

The next lines start with results.

| selectivity index for FXIIIa over factor XIa [2] [fold] | FXa HS (Hill slope) [4] | FXa ΔY (efficacy) [4] [%] | thrombin HS (Hill slope) [1] | thrombin ΔY (efficacy) [1] [%] | Structure (SMILES) | IC50 [1] [µM] | IC50 [2] [µM] | APTT2X (concentration required to double APTT) [3] [µM] | selectivity index for FXIIIa over factor Xa [4] | IC50 [4] [µM] | effect on proliferation / cell viability [5] | selectivity index for FXIIIa over thrombin [6] | effect on proliferation / cell viability [7] | FXIa HS (Hill slope) [2] | FXIa ΔY (efficacy) [2] [%] | PT2X (concentration required to double PT) [8] [µM] | concentration to double APTT as fold of the FXIIIa-IC50 [3] [fold] |
| --- | --- | --- | --- | --- | --- | --- | --- | --- | --- | --- | --- | --- | --- | --- | --- | --- | --- |
| > 30 | 2.5 ± 0.9 | 53 ± 5 |  |  | Nc1c(/N=N/c2ccc(Nc3nc(Cl)nc(Nc4cccc(S(=O)(=O)O)c4)n3)cc2S(=O)(=O)O)c(S(=O)(=O)O)cc2c(O)c(/N=N/c3ccc(Nc4nc(Cl)nc(Nc5cccc(S(=O)(=O)O)c5)n4)cc3S(=O)(=O)O)ccc12 [compound 14] | > 500 | > 150 | 583 ± 60 | 6 fold | 31 ± 5.7 |  |  |  |  |  |  |  |
|  | 1.9 ± 0.2 | 80 ± 2 | 2.6 ± 1.0 | 62 ± 5 | Cc1cc(-c2ccc(/N=N/c3ccc4c(S(=O)(=O)O)cc(S(=O)(=O)O)c(N)c4c3O)c(C)c2)ccc1/N=N/c1ccc2c(S(=O)(=O)O)cc(S(=O)(=O)O)c(N)c2c1O [compound 18] |  |  | 224.3 ± 20 |  |  |  |  |  | 1.9 ± 0.3 | 104 ± 3 | 497.9 ± 52 |  |
